# In publication PMC11211543, “Molecular mimicry of SARS-COV-2 antigens as a possible natural anti-cancer preventive immunization” (Frontiers in Immunology, 2024):
# Legend:
# [1] = tested on: CD3+/CD8+ T cells of PBMCs from vaccinated donors; format: cell-based, human; details: for percentage of circulating reacting CD8+ T cells specific to the spike peptide, average: PBMCs from 7 vaccinated donors stimulated ex vivo 3 days with the Spike peptide, Dextramer loaded with the same viral peptide; for percentage of circulating reacting CD8+ T cells specific to the homologous TAA epitope, average: TAAs paired to non-spike epitopes; for sum of the reactivities of all subjects for the epitope pair: value of the pair viral epitope/TAA
# CD8+ T cell = details: 59 Spike epitopes, different HLA alleles; cited from earlier work
# Excerpt: We have recently assessed T cell reactivity against 59 epitopes predicted in the Spike protein associated to different HLA alleles, covering both the S1 and S2 subunits. In particular, 11 were associated with the HLA-A*02:01 and only three were located in the S1 subunit, namely […] at position 62 and […] at position 269 in the NTD region; […] at position 512 in the RBD region.
# [2] = tested on: PBMCs from HLA-A*02:01–positive individuals; assay: IFN-γ ELISpot assay; format: cell-based, human; details: 10 μg/mL peptide, 3×10^5 PBMCs per well, 20 hours, 37°C; SFU per 10^6 PBMCs; mean of subjects, triplicate tests averaged
# [3] = tested on: CD3+/CD8+ T cells of PBMCs from healthy vaccinated donors; assay: pMHC multimer (tetramer) T cell staining; format: cell-based, human; details: MHC-class I tetramer staining
sequence,measurement,setting,value
HLMSFPQSA,"percentage of circulating reacting CD8+ T cells specific to the spike peptide, average",[1],0.8%
NYNYLYRLF [reference compound],immunodominance of CD8+ T cell memory response,CD8+ T cell,strongest immunodominance
ALLALTSAV [reference compound],"percentage of circulating reacting CD8+ T cells specific to the homologous TAA epitope, average",[1],1.34%
same,sum of the reactivities of all subjects for the epitope pair,[1],> 9 % of the total circulating T cells
KLLEEWNLV,sum of the reactivities of all subjects for the epitope pair,[1],~ 6 % of the total circulating T cells
LTDEMIAQY [reference compound],"IFN-γ ELISpot, average over subjects",[2],10.8 SFU
"KIADYNYKL [Wuhan, Alpha, Delta]","percentage of circulating CD8+ T cells specific for the peptide, average",[3],"0,18%"
same,"IFN-γ ELISpot, average over subjects",[2],9.8 SFU
RLLQETELV [reference compound],sum of the reactivities of all subjects for the epitope pair,[1],~ 6 % of the total circulating T cells
VLNDIFSRL,"percentage of circulating reacting CD8+ T cells specific to the spike peptide, average",[1],1.04%
VLLSMQGAV,sum of the reactivities of all subjects for the epitope pair,[1],> 9 % of the total circulating T cells
YLQPRTFLL,immunodominance of CD8+ T cell memory response,CD8+ T cell,strongest immunodominance
same,"percentage of circulating CD8+ T cells specific for the peptide, average",[3],"1,23%"
same,"IFN-γ ELISpot, average over subjects",[2],87.9 SFU
FVGEFFTDV [reference compound],"percentage of circulating reacting CD8+ T cells specific to the homologous TAA epitope, average",[1],0.36%
